The record followed here is patent US20250215029A1 (Recludix Pharma, Inc., priority 2022, published 2025).

Test [1] deals with T1, Recombinant STAT3 protein (STAT3 (G127-I722)) (Homo sapiens, UniProt P40763).
T1 construct: Recombinant STAT3 protein (STAT3 (G127-I722))
The test is described as follows: STAT3 Fluorescence Polarization (FP) Assay. Particulars: probe 5-FAM-GpYLPQTV-NH2 2 nM, 45-minute incubation. Type of test: binding. The gist of the method: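 In this competition FP format, STAT3 residues G127-I722 (25 nM) and 2 nM 5-FAM-GpYLPQTV-NH2 met test compounds for 45 min at room temperature. IC50 values result from fitting mP signal against log concentration by nonlinear regression.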

For test [2], the target named is T2, Recombinant STAT6 protein (STAT6 (W123-T658)) (Homo sapiens, UniProt P42226).
T2 construct: Recombinant STAT6 protein (STAT6 (W123-T658))
T2 sequence (P42226 123-658): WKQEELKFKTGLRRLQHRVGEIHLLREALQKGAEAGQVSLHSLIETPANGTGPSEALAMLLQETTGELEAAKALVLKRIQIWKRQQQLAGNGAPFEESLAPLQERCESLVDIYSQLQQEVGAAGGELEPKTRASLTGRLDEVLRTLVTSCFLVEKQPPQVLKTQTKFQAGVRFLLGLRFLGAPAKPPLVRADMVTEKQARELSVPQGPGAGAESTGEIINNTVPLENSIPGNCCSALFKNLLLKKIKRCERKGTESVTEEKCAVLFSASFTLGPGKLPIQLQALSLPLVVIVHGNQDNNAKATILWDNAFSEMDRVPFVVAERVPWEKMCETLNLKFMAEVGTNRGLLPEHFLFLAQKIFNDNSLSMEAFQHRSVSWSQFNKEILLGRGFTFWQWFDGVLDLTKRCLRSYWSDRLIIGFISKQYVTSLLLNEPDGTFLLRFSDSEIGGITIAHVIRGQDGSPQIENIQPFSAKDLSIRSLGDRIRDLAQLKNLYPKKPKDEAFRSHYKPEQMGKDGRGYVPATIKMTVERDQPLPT
Put plainly: STAT6 Fluorescence Polarization (FP) Assay. Type of test: binding. Particulars: probe 5-FAM-Ap[…]-NH2 2 nM, 45-minute incubation. Put shortly:
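Fluorescence polarization (mP) read-out: 250 nM STAT6 (W123-T658) plus 2 nM 5-FAM phosphotyrosine peptide, 45 min, room temperature, 1% DMSO. IC50 by nonlinear fit of mP against log compound concentration.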
(In general: In fluorescence polarisation assays a small probe gives low polarisation when free and higher when bound to something large.)

Setting [3] is: STAT3 (G127-I722) 25 nM, read-out: STAT3 (FP assay IC50 class).
[4] abbreviates: STAT6 (W123-T658) 250 nM, read-out: STAT6 (FP assay IC50 class).
Where [5] appears, read: STAT3 25 nM, read-out: STAT3 (FP assay IC50).
Where [6] appears, read: STAT6 250 nM, read-out: STAT6 (FP assay IC50).

The structures appear in SMILES notation. Like-named read-outs stand apart in the source and are kept apart here.

T1 sequence (P40763 127-722): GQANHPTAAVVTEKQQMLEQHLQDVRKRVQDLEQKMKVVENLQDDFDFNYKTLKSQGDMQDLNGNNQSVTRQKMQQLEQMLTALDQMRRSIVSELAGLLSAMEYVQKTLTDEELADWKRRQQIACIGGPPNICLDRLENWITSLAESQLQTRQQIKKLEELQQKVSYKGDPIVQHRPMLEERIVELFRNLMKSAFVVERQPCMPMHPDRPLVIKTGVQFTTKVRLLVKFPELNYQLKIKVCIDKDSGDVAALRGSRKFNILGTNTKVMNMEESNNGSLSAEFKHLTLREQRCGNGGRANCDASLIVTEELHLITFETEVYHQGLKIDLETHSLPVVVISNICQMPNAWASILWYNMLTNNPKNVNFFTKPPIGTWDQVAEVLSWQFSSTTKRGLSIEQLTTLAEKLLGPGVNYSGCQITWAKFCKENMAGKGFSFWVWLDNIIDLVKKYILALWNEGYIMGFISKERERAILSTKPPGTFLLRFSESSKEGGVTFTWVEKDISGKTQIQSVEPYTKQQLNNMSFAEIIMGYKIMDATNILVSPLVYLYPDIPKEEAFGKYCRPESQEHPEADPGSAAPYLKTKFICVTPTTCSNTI

Broadly, the IC50 is the concentration that inhibits the measured activity by half. For `CC[C@H]1CC[C@H](NC(=O)c2cc3cc(C(F)P(=O)(O)O)ccc3s2)C(=O)N2[C@H](CC[C@H]2C(=O)N2CC(c3cnccc3OC)C2)C1` (stereo partly drawn) [Compound 245, ((2-(((3S,6S,9S,10aR)-9-ethyl-3-(3-(4-methoxypyridin-3-yl)azetidine-1-carbonyl)-5-oxodecahydropyrrolo[1,2-a]azocin-6-yl)carbamoyl)benzo[b]thiophen-5-yl)fluoromethyl)phosphonic acid], the IC50 was under 0.1 µM in test [1] (setting [3]) and 3 to 30 µM in test [2] (setting [4]).

With `N#C[C@@H]1CN(C(=O)[C@@H]2CC[C@@H]3CCC[C@H](NC(=O)c4cc5cc(C(F)P(=O)(O)O)ccc5s4)C(=O)N32)C[C@H]1c1ccccc1` (single isomer, unassigned) [Compound 232], the IC50 lay within 1 to 10 µM in test [1] (setting [3]) and 0.3 to 3 µM in test [2] (setting [4]).

As for `O=C(N[C@H]1CCC[C@H]2CC[C@@H](C(=O)N3CC(c4cnccc4N4CC(C(F)(F)F)C4)C3)N2C1=O)c1cc2cc(CP(=O)(O)O)ccc2s1` [Compound 692, ((2-(((3S,6S,9aS)-5-oxo-3-(3-(4-(3-(trifluoromethyl)azetidin-1-yl)pyridin-3-yl)azetidine-1-carbonyl)octahydro-1H-pyrrolo[1,2-a]azepin-6-yl)carbamoyl)benzo [b]thiophen-5-yl)methyl) phosphonic acid], the IC50 was under 0.1 µM in test [1] (setting [3]) and 3 to 30 µM in test [2] (setting [4]).

Regarding `O=C(N[C@H]1CC[C@H](N2CCC2)C[C@H]2CC[C@@H](C(=O)N3CC(C(=O)N4CCOCC4)C3)N2C1=O)c1cc2cc(C(F)(F)P(=O)(O)O)ccc2s1` [Compound 20, ((2-(((3S,6S,9S,10aR)-9-(azetidin-1-yl)-3-(3-(morpholine-4-carbonyl)azetidine-1-carbonyl)-5-oxodecahydropyrrolo [1,2-a]azocin-6-yl)carbamoyl)benzo[b]thiophen-5-yl)difluoromethyl) phosphonic acid], the IC50 was 0.1 to 1 µM in test [1] (setting [5]) and 3 to 30 µM in test [2] (setting [6]).

With `CN(C(=O)[C@@H]1CC[C@@H]2CCCC[C@H](NC(=O)c3cc4cc(C(F)(F)P(=O)(O)O)ccc4s3)C(=O)N21)c1ccc2nnccc2c1` [Compound 24, ((2-(((3S,6S,10aS)-3-(cinnolin-6-yl (methyl)carbamoyl)-5-oxodecahydropyrrolo [1,2-a]azocin-6-yl)carbamoyl)benzo[b]thiophen-5-yl)difluoromethyl) phosphonic acid], the IC50 is 0.1 to 1 µM in test [1] (setting [5]) and at most 0.3 µM in test [2] (setting [6]).

On to `CN(C)c1ncncc1C1CN(C(=O)[C@@H]2CC[C@@H]3CCC[C@H](NC(=O)c4cc5cc(CP(=O)(O)O)ccc5s4)C(=O)N32)C1` [Compound 863, ((2-(((3S,6S,9aS)-3-(3-(4-(dimethylamino)pyrimidin-5-yl)azetidine-1-carbonyl)-5-oxooctahydro-1H-pyrrolo[1,2-a]azepin-6-yl)carbamoyl)benzo [b]thiophen-5-yl)methyl) phosphonic acid], for which the IC50 in test [1] (setting [3]) was under 0.1 µM; in test [2] (setting [4]) it was 3 to 30 µM.

As for `Cn1c(C2CN(C(=O)[C@@H]3CC[C@@H]4CCCC[C@H](NC(=O)c5cc6cc(CP(=O)(O)O)ccc6s5)C(=O)N43)C2)nc2ccccc21` [Compound 662, ((2-(((3S,6S,10aS)-3-(3-(1-methyl-1H-benzo[d]imidazol-2-yl)azetidine-1-carbonyl)-5-oxodecahydropyrrolo [1,2-a]azocin-6-yl)carbamoyl)benzo [b]thiophen-5-yl)methyl) phosphonic acid], the IC50 is 1 to 10 µM in test [1] (setting [3]) and 3 to 30 µM in test [2] (setting [4]).

In the case of `CN(C)c1ccncc1C1CN(C(=O)[C@@H]2CC[C@@H]3CCC[C@H](NC(=O)c4cc5cc(CP(=O)(O)O)ccc5s4)C(=O)N32)C1` [Compound 512, ((2-(((3S,6S,9aS)-3-(3-(4-(dimethylamino)pyridin-3-yl)azetidine-1-carbonyl)-5-oxooctahydro-1H-pyrrolo[1,2-a]azepin-6-yl)carbamoyl)benzo[b]thiophen-5-yl)methyl)phosphonic acid], the IC50 is under 0.1 µM in test [1] (setting [3]) and 3 to 30 µM in test [2] (setting [4]).

In the case of `CN(C)S(=O)(=O)N1CCN(C(=O)[C@@H]2CC[C@@H]3CCCC[C@H](NC(=O)c4cc5cc(C(F)(F)P(=O)(O)O)ccc5s4)C(=O)N32)CC1` [Compound 87, ((2-(((3S,6S,10aS)-3-(4-(N,N-dimethylsulfamoyl)piperazine-1-carbonyl)-5-oxodecahydropyrrolo [1,2-a]azocin-6-yl)carbamoyl)benzo[b]thiophen-5-yl)difluoromethyl) phosphonic acid], the IC50 in test [1] (setting [5]) was 0.1 to 1 µM; in test [2] (setting [6]), 0.3 to 3 µM.

For `O=C(N[C@H]1CCCC[C@H]2CC[C@@H](C(=O)N3CC(Oc4ccccc4)C3)N2C1=O)c1cc2cc(C(F)(F)P(=O)(O)O)ccc2s1` [Compound 39, (difluoro(2-(((3S,6S,10aS)-5-oxo-3-(3-phenoxyazetidine-1-carbonyl)decahydropyrrolo [1,2-a]azocin-6-yl)carbamoyl)benzo[b]thiophen-5-yl)methyl) phosphonic acid], the values for the IC50 in test [1] (setting [5]) and in test [2] (setting [6]) were 0.1 to 1 µM and 0.3 to 3 µM, respectively.

For the compound `O=C(N[C@H]1CCCC[C@H]2CC[C@@H](C(=O)N3CCc4[nH]ncc4C3)N2C1=O)c1cc2cc(C(F)(F)P(=O)(O)O)ccc2s1` [Compound 802, (difluoro(2-(((3S,6S,10aS)-5-oxo-3-(4,5,6,7-tetrahydro-1H-pyrazolo[4,3-c]pyridine-5-carbonyl)decahydropyrrolo[1,2-a]azocin-6-yl)carbamoyl)benzo [b]thiophen-5-yl)methyl) phosphonic acid], the IC50 in test [1] (setting [3]) lay within 1 to 10 µM; in test [2] (setting [4]), 0.3 to 3 µM.

Consider `O=C(CCC(F)(F)F)NC1(c2ccccn2)CN(C(=O)[C@@H]2CC[C@@H]3CCCC[C@H](NC(=O)c4cc5cc(C(F)(F)P(=O)(O)O)ccc5s4)C(=O)N32)C1` [Compound 124, (difluoro(2-(((3S,6S, 10aS)-5-oxo-3-(3-(pyridin-2-yl)-3-(4,4,4-trifluoro-butanamido)azetidine-1-carbonyl)decahydro-pyrrolo [1,2-a]azocin-6-yl)carbamoyl)benzo[b]thiophen-5-yl)methyl) phosphonic acid], for which the IC50 in test [1] (setting [5]) was under 0.1 µM; in test [2] (setting [6]), 3 to 30 µM.

Take `O=C(N[C@H]1CCCC[C@H]2CC[C@@H](C(=O)N3CCCC34CC4)N2C1=O)c1cc2cc(C(F)(F)P(=O)(O)O)ccc2s1` [Compound 786, (difluoro(2-(((3S,6S,10aS)-5-oxo-3-(4-azaspiro[2.4]heptane-4-carbonyl)decahydropyrrolo[1,2-a]azocin-6-yl)carbamoyl)benzo [b]thiophen-5-yl)methyl) phosphonic acid]: the IC50 lay within 1 to 10 µM in test [1] (setting [3]) and 0.3 to 3 µM in test [2] (setting [4]).

Turning to `O=C(N[C@H]1CCC[C@H]2CC[C@@H](C(=O)N3CC(c4cnccc4N4CC[C@@H](F)C4)C3)N2C1=O)c1cc2cc(CP(=O)(O)O)ccc2s1` [Compound 687, ((2-(((3S,6S,9aS)-3-(3-(4-((R)-3-fluoropyrrolidin-1-yl)pyridin-3-yl)azetidine-1-carbonyl)-5-oxooctahydro-1H-pyrrolo[1,2-a]azepin-6-yl)carbamoyl)benzo [b]thiophen-5-yl)methyl) phosphonic acid], the results for the IC50 in test [1] (setting [3]) and in test [2] (setting [4]) were under 0.1 µM and 3 to 30 µM, respectively.
